“And” between values parts separate entries of the source, which are not always exact repeats. Identical values can stand only once. Values belong to the molecule of their own block, whether it stands above or below them.
Assays:
acarids = experiment: Acarid migration tests of attraction enhancers alone and with limonene (description); type: in vivo; conditions: for acarid attracting effect when used alone: low doses
[1] = system: Dermatophagoides pteronyssinus; experiment: Binary choice test of mites between tested felt and control felt in a Petri dish; type: in vivo; design: key to stat Test: Stat diff: statistically different; NS: not significant; conditions: for Mean (binary choice of dust mites, tested felt) / stat Test: control felt + 1 μL H2O
Protocol: Aim of the experiments: All experiments are tests of binary choice aiming to determine the preference of mites and the place where they prefer to stay (at least for 30 min).
Rearing: The species studied was Dermatophagoides pteronyssinus, a dust mite common in mattresses in Eurasia. Mites are reared in Petri dishes and fed with human skin flakes (skin and whiskers obtained by cleaning electric shavers). All mites were reared together under defined conditions (20° C. and 75% relative humidity). The experiments took place in a room kept at 20° C. and 40% relative humidity.
Materials and methods: A group of mites (20<n<40) was placed in the centre of a Petri dish (∅=5.5 cm) around which two semi-circles of felt were placed (see FIG. 1). The pieces of felts were 70 mg/cm^2, their thickness was 2 mm. One felt is the control (control felt); the other felt is the felt with the tested item, for instance the felt that is impregnated with a chemical compound that is tested.
Mites move spontaneously towards one of the two felts.
Observations and counting of mites was made under binocular microscope (magnification 10*). The set-up is illuminated with a cold lamp (KL 1500 LCD, Schott®), the lighting is symmetric and the light intensity was 50 Klux. The experimental conditions were controlled in the room (T° C.: 19-22° C. and RH 40%).
Aim of the experiments: In the experiments, the tested felt was impregnated with chemicals that may be chemical acarid attractants.
Different compounds were tested: Citral, limonene, α-pinene, eucalyptol, lavendulol, polysorbate 20. Dust mites were attracted to the dilute citral (10^−6) but the citral 10^−3 is repellent. The limonene (dil. 10^−5) and the α-pinene (dil. 10^−6) were attractive for mites.

[2] = Shelf life and storage of the aqueous solution, citral and limonene by GC; type: physicochemical
Protocol: Finding an appropriate storage material. Verifying the presence of volatile attractive molecules in fresh solutions (freshly produced, 1 day old) and stored solutions (8-12 months). Determining the quantity of those attractive molecules in said solutions, and thus allowing to follow said solutions' chemical profiles within time.
An aqueous solution of 3.5 ng/μL essential oil from Melissa officinalis, 3.6 ng/μL essential oil from Cymbopogon flexuosus citraliferum and 5 ng/μL polysorbate 20 was produced, bottled and stored.
Bottle material test: Two types of 100-ml bottles were tested. A plastic and an aluminum bottle were produced (20 bottles for each material). The bottles were stored 1 month, and then tested for the presence of citral.
Long term shelf life test: 38 bottled solutions (stored 8-12 months) and 11 bottled fresh solutions (stored 1 day) were tested to compare the presence and quantity of citral and limonene.
Quantitative measurements for citral and limonene were done by gas chromatography (GC). These are well known in the art. The essential oils were extracted from 25 ml of said bottled solution using 2 ml of n-hexane (LC-MS or HPLC grade). A sample of (1 μl) of the n-hexane extract was injected in the GC-MS equipped with a mass detector and using an OPTIMA-5MS capillary column (30 m, 0.25 mm I.D., […]). Programmed temperature elution was employed with an initial temperature of 40° C., then ramped to 280° C. at 8° C./min and held at 280° C. for 5 min. Helium was used as the carrier gas. Electron impact ionization was performed using an electron energy of 70 eV and a mass range of 40-800 m/z.

[3] = system: Dermatophagoides pteronyssinus; experiment: Trap test on infested mini-mattresses with sprayed felt, mites counted via Berlese funnel; type: in vivo; conditions: felt 100% polyester; 4 ml/200 cm^2; drying + exposure 0 h + 2 h; dilution 0.00001
Protocol: Rearing: The species studied was Dermatophagoides pteronyssinus, a dust mite common in mattresses in Eurasia. Mites are reared in Petri dishes and fed with human skin flakes (skin and whiskers obtained by cleaning electric […]). All mites were reared together under defined conditions (20° C. and 75% relative humidity). The experiments took place in a room kept at 20° C. and 40% relative humidity. Aim of the experiments: The aim was to test the trap in condition similar to the conditions that will be met by the user of the trap. Materials and methods: The mattresses were built at a smaller scale (15× reduction) than usual mattresses. These mini-mattresses are made in polyurethane and covered by a cover in cotton. […] The fabric was a felt of 20 mg/cm^2 and is a rectangle of 10 cm×20 cm. It was placed on the mini-mattress. Then the attractive solution was sprayed on the fabric with a spray bottle. The fabric was left in place on the mattress. During this time, the mites moved in the felt. It is very difficult to count directly the mites hidden in the mattress and in the fabric. Therefore, we used a Berlese funnel which is a device that is usually used to separate insects from litter. Here, we used it to separate the mites form their mattress or from the fabric. […] The jar was emptied into a Petri dish and we counted mites under binocular. […]

[4] = Aluminium bottle, stored 1 month
[5] = blue felt + 1 μL, dil 10^−6, control white felt + 1 μL H2O
[6] = felt + 1 μL of Citral-0 (dilution not given)

Molecule: C=CC(C)(O)CCC=C(C)C (centres unmarked) [Linalool, 3,7-dimethyl-1,6-octadien-3-ol]
acarid attracting effect when used alone (acarids): did not appear to have a significant attracting effect | effect in combination with limonene (acarids; combined with limonene and other attractants): significant increase in the migrated population

Molecule: CC1=CC[C@H]2C[C@@H]1C2(C)C [α-pinene, (15,55)-2,6,6-trimethylbicyclo[3.1.1]hept-2-ene]
effect on dust mites ([1]; dilution 10^−6): attractive | Mean (binary choice of dust mites, tested felt) ([1]; felt + 1 μL, dil. 10^−5): 0.45 | stat Test ([1]; felt + 1 μL, dil. 10^−5): NS | Mean (binary choice of dust mites, tested felt) ([1]; felt + 1 μL, dilution 10^−6): 0.58 | stat Test ([1]; felt + 1 μL, dilution 10^−6): Stat diff

content in the bottled aqueous solution (bottle material test) [2, 4]: 12.68% ± 0.18 | content in the bottled aqueous solution (bottle material test) ([2]; Plastic bottle, stored 1 month): 12.63% ± 0.59
Molecule: CC(C)=CCC/C(C)=C\C=O [Neral]

concentration in stored solutions (mean ± St. Dev.) / detection ([2]; 38 solutions, 8-12 months after production): not detected | presence in bottled solution (bottle material test) ([2]; plastic and aluminium bottles, stored 1 month): present in each sample analysed
Molecule: CC(C)=CCCC(C)=CC=O [Citral, 3,7-dimethyl-2,6-octadienal]
Mean (compound and color) [1, 5]: 0.84 | Test stat (compound and color) [1, 5]: diff stat | migration of the mites toward the blue felt ([1]; blue felt in combination with citral): 84% | effect on dust mites ([1]; dilution 10^−3): repellent | effect on dust mites ([1]; dilution 10^−6): attracted | Mean (binary choice of dust mites, tested felt) [1, 6]: 0.03 | stat Test [1, 6]: Stat diff | Mean (binary choice of dust mites, tested felt) ([1]; felt + 1 μL, dil 10^−3): 0.23 | stat Test ([1]; felt + 1 μL, dil 10^−3): Stat diff | Mean (binary choice of dust mites, tested felt) ([1]; felt + 1 μL, dilution 10^−6): 0.72 | stat Test ([1]; felt + 1 μL, dilution 10^−6): Stat diff | trapped living mites [3]: 17%

content in the bottled aqueous solution (bottle material test) [2, 4]: 12.56% ± 1.79 | content in the bottled aqueous solution (bottle material test) ([2]; Plastic bottle, stored 1 month): 13.03% ± 1.25
Molecule: CC(C)=CCC/C(C)=C/C=O [Geranial]

Molecule: C=C(C)[C@H](CO)CC=C(C)C [Lavendulol]
effect on dust mites ([1]; dilution not stated): no statistically significant effect | Mean (binary choice of dust mites, tested felt) ([1]; felt + 1 μL, dilution 10^−6): 0.46 and 0.51 | stat Test ([1]; felt + 1 μL, dilution 10^−6): NS

Molecule: CC12CCC(CC1)C(C)(C)O2 [Eucalyptol, 1,3,3-Trimethyl-2-oxabicyclo [2.2.2.]octane]
effect on dust mites ([1]; dilution not stated): no statistically significant effect | Mean (binary choice of dust mites, tested felt) ([1]; felt + 1 μL, dilution 10^−6): 0.48 and 0.51 | stat Test ([1]; felt + 1 μL, dilution 10^−6): NS

Molecule: C=C(C)C1CC=C(C)CC1 (centres unmarked) [Limonene, 1-methyl-4-(1-methylethenyl)-cyclohexene]
effect on dust mites ([1]; dil. 10^−5): attractive | Mean (binary choice of dust mites, tested felt) ([1]; felt + 1 μL, dil. 10^−5): 0.61 | stat Test ([1]; felt + 1 μL, dil. 10^−5): Stat diff | Mean (binary choice of dust mites, tested felt) ([1]; felt + 1 μL, dilution 10^−6): 0.48 | stat Test ([1]; felt + 1 μL, dilution 10^−6): NS

Molecule: CC(C)=CCCC(C)CC=O (centres unmarked) [Citronellal, 3,7-dimethyloct-6-en-1-al]
acarid attracting effect when used alone (acarids): mild acarid attractant | migrated population (acarids; tested with limonene for long contact times): ~1

Molecule: polyoxyethylene (20) sorbitan monolaurate [Polysorbate 20]
effect on dust mites ([1]; dilution not stated): no statistically significant effect | Mean (binary choice of dust mites, tested felt) ([1]; felt + 1 μL, dilution 10^−6): 0.50 and 0.53 | stat Test ([1]; felt + 1 μL, dilution 10^−6): NS

From US11324209B2, “Composition to promote migration of acarids” (ACAR'UP SPRL, priority 2017, dated 2022)
